The record followed here is US8524781B2, “Organosulfur compounds, a method of making organosulfur compounds and their use for inhibiting the growth of tumour cells” (University of Cape Town, priority 2008, dated 2013).

What all share (type): cell-based
For one assay, the system named is WHCO1 cells. Put plainly: MTT assay, inhibition of cell growth of WHCO1 cells. Conditions: for IC50: WHCO1 oesophageal epithelial cancer cells, MTT, 48 hours incubation. Here is the method: (§1) The compounds were evaluated for their in vitro ability to inhibit cell growth of cultured tumour cells using the 3-(4,5-dimethylthiazol-2-yl)-2,5-diphenyltetrazolium bromide (MTT) assay. These cell types include:
3. WHCO1 cells which are oesophageal epithelial cancer cells; and
(§2) One oesophageal squamous cell carcinoma cell line WHCO1 originally established from surgical biopsies of primary oesophageal squamous cell carcinomas, a transformed fibroblast cell line CT-1 or human breast epithelial cells MDA-MB-231 were cultured in DMEM containing 10% foetal calf serum and 1% penicillin and streptomycin at 37° C. in a humidified atmosphere of 5% CO2. For the MTT assay, 3×10^3 cells were plated in 96-well plates in 90 μL DMEM per well. Compounds solubilized in DMEM+1% DMSO (10 μl) were added to cells and DMEM+1% DMSO, (10 μl) alone was added to the control to give a final concentration of 0-200 μM compound and 0.1% DMSO. After 48 hours incubation period, 10 μL of the MTT labelling reagent (final concentration 0.45 mg/ml) was added to each well and incubated for 4 hours in a humidified atmosphere at 37° C. One hundred micro litres of the solubilization solution was added to each well and the plates were incubated overnight at 37° C. The spectrophotometric absorbance of the wells was measured at 595 nm using a microtiter plate reader.
A general note: Tetrazolium assays rely on reduction of a dye to a coloured formazan, in cell work by metabolically active cells.

Another assay relates to CT-1 cells. Put plainly: MTT assay, inhibition of cell growth of CT-1 cells. Conditions: CT-1 transformed WI38 fibroblasts, 48 hours incubation, read-out: CT1 IC50. Here is the method: as §1
2. CT-1 cells which are transformed WI38 fibroblasts;
as §2

For the next assay, the system named is MDA-MB-231 cells. Put plainly: MTT assay, inhibition of cell growth of MDA-MB-231 cells. Conditions: MDA-MB-231 human breast epithelial cancer cells, 48 hours incubation. Here is the method: as §1
5. MDA-MB-231 cells which are human breast epithelial cancer cells; and
as §2

The IC50 is the point on the concentration scale where inhibition reaches its midpoint.

The structures appear in SMILES notation. Like-named read-outs stand apart in the source and are kept apart here.

For the molecule `C=CCSS/C=C/C[S+]([O-])CCC` (mixture of isomers) [Compound E-3, (E/Z)-4,5,9-trithiadodeca-1,6-diene-9-oxide], the IC50 in the assay with WHCO1 cells (WHCO1, 48 h) stood at 35.8 µM; in the assay with CT-1 cells (Homo sapiens, WI-38, 48 h), 26.7 µM; with MDA-MB-231 cells it was 25.9 µM.
In the case of `C=CCSSC=CC[S+]([O-])CCCO` (mixture of isomers) [Compound E-4, (E/Z)-4,8,9-trithiadodeca-6,11-diene-1-ol-4-oxide], the half-maximal inhibitory concentration (IC50) in the assay with WHCO1 cells is 26.8 µM; with CT-1 cells, 23.1 µM.
In the case of `C=CCSSC=CC[S+]([O-])CCCN1C(=O)c2ccccc2C1=O` (mixture of isomers) [Compound E-5, (E/Z)-12-phthalimido-4,5,9-trithiadodeca-1,6-diene-9-oxide], the IC50 with WHCO1 cells was 68.9 µM; in the assay with CT-1 cells, 95.9 µM.
On the same counts, the results for `C=CCSSC=CC[S+]([O-])CCCOCc1ccc(OC)cc1` (mixture of isomers) [Compound E-9, (E/Z)-12-(p-methoxybenzyloxy)-4,5,9-trithiadodeca-1,6-diene-9-oxide] are 19.1 µM and 23.5 µM.
On the same counts, the results for `CCCSSC=CC[S+]([O-])CCC` (mixture of isomers) [Compound E-14, (E/Z)-4,5,9-trithiadodeca-6-ene-9-oxide] are 33.8 µM and 9.32 µM.
With `CCC[S+]([O-])CC=CSSC` (mixture of isomers) [Compound E-15, (E/Z)-2,3,7-trithiadeca-4-ene-7-oxide], the half-maximal inhibitory concentration (IC50) with WHCO1 cells was 47.4 µM; with CT-1 cells, 10.3 µM.
For the molecule `C=CCSS/C=C\C[S+]([O-])CCC` (mixture of isomers) [Compound Z-3, (E/Z)-4,5,9-trithiadodeca-1,6-diene-9-oxide], the 50% inhibitory concentration (IC50) in the assay on WHCO1 cells (WHCO1, 48 h) is 21.6 µM; in the assay on CT-1 cells (Homo sapiens, WI-38, 48 h) it was 17 µM; in the assay with MDA-MB-231 cells, 19.2 µM.
As for `C=CCSSC=CC[S+]([O-])CCCO` (mixture of isomers) [Compound Z-4, (E/Z)-4,8,9-trithiadodeca-6,11-diene-1-ol-4-oxide], the 50% inhibitory concentration (IC50) in the assay with WHCO1 cells was 37.9 µM; in the assay on CT-1 cells, 22.8 µM.
With `C=CCSSC=CC[S+]([O-])CCCN1C(=O)c2ccccc2C1=O` (mixture of isomers) [Compound Z-5, (E/Z)-12-phthalimido-4,5,9-trithiadodeca-1,6-diene-9-oxide], the figures for the half-maximal inhibitory concentration (IC50) in the assay on WHCO1 cells and with CT-1 cells were 36 µM and 34.6 µM, respectively.
On the same counts, the results for `C=CCSSC=CC[S+]([O-])CCCOCc1ccc(OC)cc1` (mixture of isomers) [Compound Z-9, (E/Z)-12-(p-methoxybenzyloxy)-4,5,9-trithiadodeca-1,6-diene-9-oxide] are 16.9 µM and 21.7 µM.
Regarding `C=CCSSC=CC[S+]([O-])C(C)(C)C` (mixture of isomers) [EZ-6, (E/Z)-10,10-dimethyl-4,5,9-trithiaundeca-1,6-diene-9-oxide], the half-inhibitory concentration (IC50) stood at 25.4 µM in the assay on WHCO1 cells and 33.1 µM in the assay with CT-1 cells.
In the case of `C=CCSSC=CC[S+]([O-])Cc1ccccc1` (mixture of isomers) [EZ-7, (E/Z)-10-phenyl-4,5,9-trithiadeca-1,6-diene-9-oxide], the IC50 came out at 8.8 µM with WHCO1 cells (WHCO1, 48 h) and 16.6 µM in the assay on CT-1 cells (Homo sapiens, WI-38, 48 h).
`C=CCSSC=CC[S+]([O-])Cc1ccc(OC)cc1` (mixture of isomers) [EZ-8, (E/Z)-10-(p-methoxyphenyl)-4,5,9-trithiadeca-1,6-diene-9-oxide]: the IC50 was 7.12 µM in the assay with WHCO1 cells (WHCO1, 48 h); 11.2 µM with CT-1 cells (Homo sapiens, WI-38, 48 h); 6.6 µM in the assay with MDA-MB-231 cells.
The molecule `COc1ccc(C[S+]([O-])CC=CSSCc2ccc(F)cc2)cc1` (mixture of isomers) [EZ-10, (E/Z)-1-(p-fluorophenyl)-8-(p-methoxyphenyl)-2,3,7-trithiaocta-4-ene-7-oxide] showed an IC50 in the assay on WHCO1 cells of 13.6 µM.
Regarding `COc1ccc(CSSC=CC[S+]([O-])Cc2ccc(OC)cc2)cc1` (mixture of isomers) [EZ-11, (E/Z)-1-(p-methoxyphenyl)-8-(p-methoxyphenyl)-2,3,7-trithiaocta-4-ene-7-oxide], the IC50 with WHCO1 cells worked out at 1.34 µM; with MDA-MB-231 cells it was 0.82 µM. Besides, the “activity relative to ajoene at inhibiting growth of WHCO1 oesophageal cancer cells in vitro” value in the assay on WHCO1 cells (compared with ajoene, WHCO1 cells) is listed as “fifteen times more active than ajoene”.
On to `COc1ccc(C[S+]([O-])CC=CSSCc2ccccc2)cc1` (mixture of isomers) [EZ-12, (E/Z)-1-phenyl-8-(p-methoxyphenyl)-2,3,7-trithiaocta-4-ene-7-oxide], for which the IC50 in the assay with WHCO1 cells (WHCO1, 48 h) was determined as 3.05 µM; in the assay on MDA-MB-231 cells it was 1.19 µM.
For the molecule `CCC[S+]([O-])CC=CSSCCCNS(=O)(=O)c1cccc2c(N(C)C)cccc12` (mixture of isomers) [EZ-13, (E/Z)-1-(dansylamino)-4,5,9-trithiadodeca-6-ene-9-oxide], the IC50 amounted to 14.2 µM with WHCO1 cells, 17.7 µM with CT-1 cells and 42.6 µM in the assay on MDA-MB-231 cells.
In the case of `C=CCSS/C=C/C[S+]([O-])CC=C` (stereo not drawn) [E-ajoene, 4,5,9-trithiadodeca-1,6,11-triene-9-oxide, reference compound], the IC50 was 20.9 µM in the assay with WHCO1 cells (WHCO1, 48 h) and 17.6 µM in the assay with CT-1 cells (Homo sapiens, WI-38, 48 h).
Regarding `C=CCSS/C=C/C[S+]([O-])CC=C` (stereo not drawn) [Z-ajoene, 4,5,9-trithiadodeca-1,6,11-triene-9-oxide, reference compound], the results for the IC50 in the assay with WHCO1 cells and in the assay with CT-1 cells were 20.5 µM and 15.5 µM, respectively.
